PMC6835155, “Lessons from LIMK1 enzymology and their impact on inhibitor design” (Biochemical Journal, 2019)
Where a name gives a salt, the structure may show the parent alone.

Columns and labels:
[1] = target: T1, LIMK1KD (Homo sapiens, UniProt P53667); experiment: Differential (dynamic) scanning fluorimetry (DSF) assay, LIMK1KD; type: binding; settings: 2 µM LIMK1KD, compound 10 µM, single shot; for ΔTm at 10 µM: read-out: TM Shift LIMK1 (K)
T1 construct: His6 (N, cleaved yes); made in house; host or cells: baculovirus; Sf9 for virus, TriEx insect cells for expression
T1 sequence (P53667 330-637): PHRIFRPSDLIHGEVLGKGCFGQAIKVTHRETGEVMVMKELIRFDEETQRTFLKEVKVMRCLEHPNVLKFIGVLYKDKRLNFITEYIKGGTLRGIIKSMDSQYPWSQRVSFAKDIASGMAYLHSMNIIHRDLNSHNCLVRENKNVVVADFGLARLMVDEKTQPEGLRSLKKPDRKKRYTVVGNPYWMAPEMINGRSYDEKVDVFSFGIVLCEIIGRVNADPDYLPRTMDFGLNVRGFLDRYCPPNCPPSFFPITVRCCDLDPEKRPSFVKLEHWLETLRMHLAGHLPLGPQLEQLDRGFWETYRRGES

[2] = target: T2, LIMK2KD (Homo sapiens, UniProt P53671); experiment: Differential (dynamic) scanning fluorimetry (DSF) assay, LIMK2KD; type: binding; settings: LIMK2KD, compound 10 µM, single shot; for ΔTm at 10 µM: read-out: TM Shift LIMK2 (K)
T2 construct: The cDNA coding for LIMK2 residues 330 to 632 was PCR amplified; His6 (N, cleaved yes); made in house; host or cells: baculovirus; Sf9 for virus, TriEx insect cells for expression
T2 sequence (P53671 330-632): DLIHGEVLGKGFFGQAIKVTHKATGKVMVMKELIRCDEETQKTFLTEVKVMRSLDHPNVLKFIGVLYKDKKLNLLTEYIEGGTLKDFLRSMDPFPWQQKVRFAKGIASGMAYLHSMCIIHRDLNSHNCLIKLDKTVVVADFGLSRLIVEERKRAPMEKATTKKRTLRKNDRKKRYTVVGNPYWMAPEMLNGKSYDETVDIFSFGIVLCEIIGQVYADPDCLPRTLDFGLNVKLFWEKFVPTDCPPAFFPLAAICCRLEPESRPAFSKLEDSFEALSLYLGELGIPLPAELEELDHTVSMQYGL

Compound | TM Shift LIMK1 (K) [1] | TM Shift LIMK2 (K) [2] | ΔTm at 10 µM [1] | ΔTm at 10 µM [2] | further results
Cc1[nH]nc2ccc(-c3cncc(OC[C@@H](N)Cc4ccccc4)c3)cc12 [A-674563] | 0.8 K | 0.2 K | – | – | –
Cc1cc(Nc2cc(N3CCN(C)CC3)nc(Sc3ccc(NC(=O)C4CC4)cc3)n2)[nH]n1 [VX-680 (Tozasertib, MK-0457), Tozasertib] | – | – | 3.4 °C | 0 °C | –
S=C(NCc1ccc2c(c1)OCO2)N1CCN(c2ncnc3c2oc2ccccc23)CC1 [Amuvatinib (MP-470), Amuvatinib] | – | – | -0.3 °C | 2.3 °C | –
Cc1cc(Nc2nc(N[C@@H](C)c3ccc(F)cc3)c(C#N)cc2F)[nH]n1 [AZ 960] | – | – | 6 °C | 0.1 °C | –
COC[C@H]1OC(=O)c2coc3c2[C@@]1(C)C1=C(C3=O)[C@@H]2CCC(=O)[C@@]2(C)C[C@H]1OC(C)=O [Wortmannin] | – | – | 0.2 °C | 0.1 °C | –
Cc1cnc(Nc2ccc(F)cc2Cl)nc1-c1c[nH]c(C(=O)N[C@H](CO)c2cccc(Cl)c2)c1 [VX-11E] | 0.0 K | -1.6 K | – | – | –
C[C@@H]1COC(Nc2ccc3ncnc(Nc4ccc(OCc5nccs5)c(Cl)c4)c3c2)=N1 [Varlitinib] | – | – | 0.9 °C | 0.8 °C | –
WYE-354 | 0.2 K | 4.1 K | – | – | –
N#Cc1c(O)c2c(-c3ccc(-c4ccccc4O)cc3)csc2[nH]c1=O [A-769662] | 0.9 K | 2.4 K | – | – | –
Cc1cc(Nc2ncnc3ccc(-c4ccc(CNCCS(C)(=O)=O)o4)cc23)ccc1Oc1ccn2ncnc2c1 [HER2-Inhibitor-1] | 2.0 K | 0.2 K | – | – | –
COc1ccc(-c2cc3c(C)nc(N)nc3n([C@H]3CC[C@H](OCCO)CC3)c2=O)cn1 [PF-04691502] | 0.9 K | 0.6 K | – | – | –
CNC(=O)c1cc(Oc2ccc(NC(=O)Nc3ccc(Cl)c(C(F)(F)F)c3)c(F)c2)ccn1 [Regorafenib (BAY 73-4506), Regorafenib] | – | – | 0 °C | 0.7 °C | –
CN1CCC(c2c(O)cc(O)c3c(=O)cc(-c4ccccc4Cl)oc23)C1CO (centres unmarked) [P276-00] | 0.7 K | 1.3 K | – | – | –
CNC(=O)c1cc(COc2nnc(Nc3ccc(Cl)cc3)c3ccoc23)ccn1 [Telatinib] | – | – | -1.4 °C | 3.3 °C | –
O=C(NC1CCNCC1)c1[nH]ncc1NC(=O)c1c(Cl)cccc1Cl [AT7519] | – | – | 1.2 °C | 1.3 °C | –
O=C(O)[C@]1(Cc2cccc(Nc3nccs3)n2)CC[C@@H](Oc2cccc(Cl)c2F)CC1 [MK-5108 (VX-689)] | – | – | 1.5 °C | 0.9 °C | –
Cc1cc2c(F)c(Oc3ncnn4cc(OC[C@@H](C)O)c(C)c34)ccc2[nH]1 [Brivanib (BMS-540215), Brivanib] | – | – | 0.8 °C | 0.3 °C | –

Compound | TM Shift LIMK1 (K) [1] | TM Shift LIMK2 (K) [2] | ΔTm at 10 µM [1] | ΔTm at 10 µM [2] | further results
OCCn1cc(-c2cnc3nnn(Cc4ccc5ncccc5c4)c3n2)cn1 [PF-04217903] | 0.3 K | -0.1 K | – | – | –
COc1cc2ncnc(Nc3ccc(O)c(Br)c3)c2cc1OC [WHI-P154] | 1.5 K | -0.2 K | – | – | –
CC(=O)Nc1cccc(-n2c(=O)n(C3CC3)c(=O)c3c(Nc4ccc(I)cc4F)n(C)c(=O)c(C)c32)c1 [Trametinib (GSK1120212), Trametinib] | – | – | -0.2 °C | 0 °C | –
CS(=O)(=O)N1CCc2c(-c3cnc(N)nc3)nc(N3CCOCC3)nc21 [CH5132799] | – | – | 1.3 °C | 0.1 °C | –
Cc1ccc(F)c(NC(=O)Nc2ccc(-c3cccc4[nH]nc(N)c34)cc2)c1 [Linifanib] | – | – | 2 °C | 5 °C | –
COc1cc2ncnc(Nc3ccc(Cl)cc3F)c2cc1OC [ZM 306416] | 0.4 K | 1.8 K | – | – | –
O=C1c2ccc(Nc3ccc(F)cc3F)cc2CCc2ccc(OC[C@H](O)CO)cc21 [Skepinone-L] | – | – | -0.5 °C | -0.6 °C | –
C[C@@H]1CCN(C(=O)CC#N)C[C@@H]1N(C)c1ncnc2[nH]ccc12 [Tofacitinib (CP-690550) Citrate, Tofacitinib] | – | – | -0.4 °C | 3.1 °C | –
COc1cc2nccc(Oc3ccc(NC(=O)Nc4ccc(F)cc4F)c(F)c3)c2cc1OC [Ki8751] | -0.1 K | 1.5 K | – | – | –
COc1cc2nccc(Oc3ccc(NC(=O)Nc4cc(C)on4)c(Cl)c3)c2cc1OC [Tivozanib (AV-951), Tivozanib] | – | – | 1.1 °C | 1.5 °C | –
C[C@@H]1COCCN1c1cc(C2(S(C)(=O)=O)CC2)nc(-c2cccc3[nH]ccc23)n1 [AZ20] | 0.8 K | -0.8 K | – | – | –
Cc1ccc(S(=O)(=O)/C=C/C#N)cc1 [BAY 11-7082] | -0.8 K | 0.2 K | – | – | –
CC(C)N(CCC(=O)c1ccc2ccccc2c1)Cc1ccccc1.Cl [ZM 39923 HCl] | 0.2 K | -1.4 K | – | – | –
COc1ccc(Cl)cc1NC(=O)Nc1cc(C)nc2ccccc12 [PQ 401] | 0.2 K | -0.9 K | – | – | –
O=c1cc(N2CCOCC2)oc2c(-c3ccccc3)cccc12 [LY294002] | – | – | 0 °C | 0.4 °C | –
CS(=O)(=O)O.Cn1cc(C2=C(c3cn(CCCSC(=N)N)c4ccccc34)C(=O)NC2=O)c2ccccc21 [Ro 31-8220 Mesylate] | 1.6 K | 1.2 K | – | – | –
COc1ccc(-c2ccc3ncc4c(c3c2)n(-c2ccc(N3CCNCC3)c(C(F)(F)F)c2)c(=O)n4C)cn1 [BGT226 (NVP-BGT226)] | – | – | -0.1 °C | -0.7 °C | –

The next lines start with results.

TM Shift LIMK1 (K) [1] | TM Shift LIMK2 (K) [2] | ΔTm at 10 µM [1] | ΔTm at 10 µM [2] | Compound | further results
– | – | -0.1 °C | 0 °C | CCn1c(-c2nonc2N)nc2c(C#CC(C)(C)O)ncc(OC[C@H]3CCCNC3)c21 [GSK690693] | –
-0.4 K | – | – | – | CC(C)NC[C@@H](C(=O)N1CCN(c2ncnc3c2[C@H](C)C[C@H]3O)CC1)c1ccc(Cl)cc1 [GDC-0068] | TM Shift LIMK2 (K) ([2]; 10 µM): -0.4 K
– | – | 3.7 °C | 1.4 °C | COc1cc(N2CCC(N3CCN(C)CC3)CC2)ccc1Nc1ncnc(Nc2ccccc2S(=O)(=O)C(C)C)n1 [ASP3026] | –
3.4 K | 3.5 K | – | – | Cc1cc(CN2CCN(c3c(Br)cnc4nc(-c5ccc(N6CCN(C)CC6)cc5)[nH]c34)CC2)no1 [CCT137690] | –
– | – | 1.5 °C | 2 °C | Nc1nccc(Oc2ccc(NC(=O)c3c[nH]cc(-c4ccc(F)cc4)c3=O)cc2F)c1Cl [BMS-794833] | –
– | – | 0.7 °C | 1.8 °C | Cc1cc([C@@H](C)Nc2ccccc2C(=O)O)c2nc(N3CCOCC3)cc(=O)n2c1 [AZD6482] | –
1.0 K | -0.3 K | – | – | O=C(c1cccc(Cl)c1F)N1CCN(Cc2cccc(Nc3nccs3)n2)CC1 [MK-8745] | –
– | – | -0.4 °C | 0.2 °C | Cn1cc(-c2ccc3nnc(Sc4ccc5ncccc5c4)n3n2)cn1 [SGX-523] | –
-0.2 K | -0.4 K | – | – | O=C1NC(=O)/C(=C/c2cccc(C(F)(F)F)c2)S1 [SMI-4a] | –
– | – | 1.1 °C | 0.8 °C | C[C@@H](Oc1cc(-n2cnc3ccc(CN4CCN(C)CC4)cc32)sc1C(N)=O)c1ccccc1C(F)(F)F [GSK461364] | –
-0.1 K | – | – | – | COc1ccc(Cl)c(Nc2nc3ccccc3nc2NS(=O)(=O)c2cccc(NC(=O)C(C)(C)N)c2)c1 [XL147] | TM Shift LIMK2 (K) ([2]; 10 µM): 0.6 K
– | – | 0.3 °C | -0.1 °C | COc1ccc(-c2nc(N3CCOCC3)c3sc(CN(C)c4ncc(C(=O)NO)cn4)cc3n2)cn1 [CUDC-907] | –
– | – | 0.7 °C | – | Cc1c(NC(=O)OC[C@@H]2COCCN2)cn2ncnc(Nc3ccc4c(cnn4Cc4cccc(F)c4)c3)c12 [BMS-599626] | TM Shift LIMK2 (K) ([2]; 10 µM): -0.4 K; TM Shift LIMK2 (K) ([2]; listed as AC480 (BMS-599626), 10 µM): 0.9 K
0.6 K | 1.6 K | – | – | CCCCCCCCCCCCc1ccc(S(=O)(=O)Nc2nncs2)cc1 [PHT-427] | –
-0.8 K | -0.3 K | – | – | COc1cccc(-c2cc(=O)c3ccccc3o2)c1N [PD98059] | –
– | – | 0.8 °C | 0.3 °C | CN(C[C@@H]1COCCO1)S(=O)(=O)Nc1ccc2ccc3ncc(-c4cnn(C)c4)cc3c(=O)c2c1 [MK-2461] | –
